Data on 67 compounds can be found in the OPERA property sets (Mansouri et al. 2018).

≈ marks a conversion by molar mass, not a printed value.

Settings in one series: not given
Turning to `CCC(N)Cc1c[nH]c2ccccc12` (configuration not stated), the solubility (usually how much of the substance goes into solution per volume) came to 2.71 mM (≈ 510 µg/mL).

For `CN(C)c1ccc(C(=O)O)cc1`, the solubility came to 0.4 mM (≈ 66.1 µg/mL).

Take `N[C@@H](C(=O)N[C@@H]1C(=O)N2C(C(=O)O)=C(Cl)CS[C@H]12)c1ccccc1`: the solubility was 27.2 mM (≈ 10000 µg/mL).

`O=C(O)c1c(O)cccc1O` came in with a solubility of 62 mM (≈ 9560 µg/mL).

For `O=C(O)c1c(Cl)cccc1Cl`, the solubility was 74 mM (≈ 14100 µg/mL).

As for `O=C(OCC(O)CO)c1ccccc1Nc1ccnc2cc(Cl)ccc12` (configuration not stated), the solubility turned out to be 107 mM (≈ 40000 µg/mL).

`CC(=O)N=c1sc(S(N)(=O)=O)nn1C`: the solubility amounted to 14.8 mM (≈ 3500 µg/mL).

Still in this series, the particulars now being: 20 °C.
In turn, `CC(=NO)C(C)=NO` yielded a solubility of 5.17 mM (≈ 600 µg/mL).

`C=CC(=O)Oc1c(Br)cc(Cl)c2cccnc12`: the solubility was found to be 0.0192 mM (≈ 6 µg/mL).

In the case of `CC(=O)CC1CCCCN1` (configuration not stated), the solubility amounted to 354 mM (≈ 50000 µg/mL).

With `CCC1CCCCC1`, the solubility is 0.0561 mM (≈ 6.3 µg/mL).

Turning to `NCCS(=O)(=O)O`, the solubility came out at 645 mM (≈ 80700 µg/mL).

As for `CCCCI`, the solubility was determined as 1.1 mM (≈ 202 µg/mL).

For `Cc1cc(Cl)ccc1N=CN(C)C`, the solubility was 1.37 mM (≈ 270 µg/mL).

The compound `C=CC1CN2CCC1CC2C(=O)c1ccnc2ccc(OC)cc12` (configuration not stated) displayed a solubility of 0.0093 mM (≈ 3 µg/mL).

`c1cnc2ncncc2n1` gave a solubility of 1080 mM (≈ 143000 µg/mL).

`CCCCNC(=O)n1c(NC(=O)OC)nc2ccccc21`: the solubility is 0.0131 mM (≈ 3.8 µg/mL).

In turn, `CC(C)I` displayed a solubility of 8.24 mM (≈ 1400 µg/mL).

The compound `C[C@@H](CCl)[N+](=O)[O-]` had a solubility of 64.8 mM (≈ 8000 µg/mL).

`COC(=O)c1ccc(OC)cc1` showed a solubility of 3.87 mM (≈ 643 µg/mL).

Regarding `Nc1cnn(-c2ccccc2)c(=O)c1Cl`, the solubility came out at 1.8 mM (≈ 400 µg/mL).

The compound `Clc1cccc(-c2ccccc2Cl)c1` returned a solubility of 0.0026 mM (≈ 0.58 µg/mL).

`CCOP(=S)(OCC)Oc1cc(C)nc(N(CC)CC)n1` displayed a solubility of 0.0119 mM (≈ 3.97 µg/mL).

In the case of `Nc1ccc2cc3ccc(N)cc3nc2c1`, the solubility came to 2390 mM (≈ 500000 µg/mL).

Regarding `Clc1ccc(-c2cc(Cl)c(Cl)c(Cl)c2Cl)cc1Cl`, the solubility is 1.48e-05 mM (≈ 0.00533 µg/mL).

As for `CCOP(=S)(NC(C)C)Oc1ccccc1C(=O)OC(C)C` (configuration not stated), the solubility was 0.064 mM (≈ 22.1 µg/mL).

Regarding `OC[C@H]1O[C@@H](n2cnc3c(O)ncnc32)[C@H](O)[C@@H]1O`, the solubility worked out at 58.9 mM (≈ 15800 µg/mL).

`COc1ccc(C=O)c(C(=O)O)c1OC` yielded a solubility of 11.9 mM (≈ 2500 µg/mL).

`CN(C)C(=O)NC1CCCCCCC1` displayed a solubility of 6.05 mM (≈ 1200 µg/mL).

For the compound `O=[N+]([O-])c1cc(Cl)c(Cl)cc1Cl`, the solubility worked out at 0.13 mM (≈ 29.4 µg/mL).

`Oc1ccc2c(c1)CCCC2` showed a solubility of 10.1 mM (≈ 1500 µg/mL).

Take `O=c1ccc2ccccc2o1`: the solubility is 13 mM (≈ 1900 µg/mL).

As for `Oc1cc(O)ncn1`, the solubility worked out at 22.3 mM (≈ 2500 µg/mL).

Turning to `Clc1cc(Cl)c(-c2c(Cl)cc(Cl)c(Cl)c2Cl)cc1Cl`, the solubility was found to be 1.24e-05 mM (≈ 0.0049 µg/mL).

On to `CC1CCCC(=O)C1` (configuration not stated), for which the solubility amounted to 13.4 mM (≈ 1500 µg/mL).

Compound `Nc1ccc(S(=O)(=O)O)cc1` registered a solubility of 62.4 mM (≈ 10800 µg/mL).

On to `CC(C)(O)C(Cl)(Cl)Cl`, for which the solubility was 45.1 mM (≈ 8000 µg/mL).

Turning to `CCCI`, the solubility was found to be 6.3 mM (≈ 1070 µg/mL).

Regarding `Clc1ccc(-c2ccc(Cl)c(Cl)c2)c(Cl)c1`, the solubility came to 0.000126 mM (≈ 0.0368 µg/mL).

For `O=[N+]([O-])c1c(O)ccc2ccccc12`, the solubility is 1.06 mM (≈ 200 µg/mL).

`CCCCOCCOC(C)=O` gave a solubility of 56.2 mM (≈ 9000 µg/mL).

In turn, `CCC(Cl)[N+](=O)[O-]` (configuration not stated) came in with a solubility of 64.8 mM (≈ 8000 µg/mL).

Still in this series, the particulars now being: 21 °C.
With `Brc1cccc2ccccc12`, the solubility was 0.045 mM (≈ 9.32 µg/mL).

In the case of `O=C(O)CCCCCCCCCCCC(=O)O`, the solubility was found to be 6.14 mM (≈ 1500 µg/mL).

The compound `NC(=S)c1c(Cl)cccc1Cl` had a solubility of 4.61 mM (≈ 950 µg/mL).

Still in this series, the particulars now being: 22 °C.
`O=C1NC(=O)C(c2ccccc2)(c2ccccc2)N1` returned a solubility of 0.127 mM (≈ 32 µg/mL).

`Cc1ccccc1Oc1cccnn1` returned a solubility of 10.7 mM (≈ 2000 µg/mL).

On to `O=[N+]([O-])c1ccc(Oc2ccc(Cl)cc2Cl)cc1`, for which the solubility came out at 0.00352 mM (≈ 1 µg/mL).

Take `O=C(c1ccccc1)c1c(O)cc(O)cc1O`: the solubility worked out at 13.5 mM (≈ 3100 µg/mL).

In the case of `CN(C)C(=O)N(C(=O)c1ccccc1)c1ccc(Cl)c(Cl)c1`, the solubility was determined as 0.0474 mM (≈ 16 µg/mL).

`COC(=O)[C@@H]1C2CCC(C[C@@H]1OC(=O)c1ccccc1)N2C` (some centres not stated) displayed a solubility of 5.93 mM (≈ 1800 µg/mL).

Still in this series, the particulars now being: 23 °C.
`C[C@]12CC[C@@H](O)C[C@@H]1CC[C@@H]1[C@@H]2CC[C@]2(C)C(=O)CC[C@@H]12` had a solubility of 0.0461 mM (≈ 13.4 µg/mL).

`Nc1ccc(C(=O)O)c(O)c1` showed a solubility of 11 mM (≈ 1690 µg/mL).

As to `COP(=O)(OC)OC1=C(Cl)C2C=CCC12` (configuration not stated), the solubility was determined as 9.97 mM (≈ 2500 µg/mL).

The series is the same for the next values; noted with them: 24 °C.
Regarding `CNCCCN1c2ccccc2CCc2ccccc21`, the solubility was determined as 0.22 mM (≈ 58.6 µg/mL).

In turn, `CN(C)CCC=C1c2ccccc2CCc2ccccc21` showed a solubility of 0.035 mM (≈ 9.71 µg/mL).

As for `CN(C)CCCN1c2ccccc2CCc2ccccc21`, the solubility came to 0.065 mM (≈ 18.2 µg/mL).

The compound `CC(C)Oc1cc(-n2nc(C(C)(C)C)oc2=O)c(Cl)cc1Cl` had a solubility of 0.00203 mM (≈ 0.7 µg/mL).

The series is the same for the next values; noted with them: 25 °C.
The compound `CCCN(CCC)C(=O)SCC` came in with a solubility of 1.98 mM (≈ 375 µg/mL).

Compound `O=C(O)C(=O)Nc1ccccc1` returned a solubility of 49.9 mM (≈ 8240 µg/mL).

Compound `CC(C)CCOC(=O)c1ccccc1O` had a solubility of 0.696 mM (≈ 145 µg/mL).

The compound `CC(C)C(=O)C(C)C` returned a solubility of 49.9 mM (≈ 5700 µg/mL).

As to `CCCCCCOC(C)=O`, the solubility is 3.54 mM (≈ 511 µg/mL).

In the case of `CC(C)(C)c1ccccc1`, the solubility was determined as 0.22 mM (≈ 29.5 µg/mL).

`COc1cc(C=O)ccc1O` showed a solubility of 72.3 mM (≈ 11000 µg/mL).

In turn, `O=C(O)c1cc(O)c(O)c(OC(=O)c2cc(O)c(O)c(O)c2)c1` showed a solubility of 1.55 mM (≈ 500 µg/mL).

Regarding `C1CCC2CCCCC2C1` (configuration not stated), the solubility amounted to 0.00643 mM (≈ 0.889 µg/mL).
